Measured values published in patent publication US20230270139A1, “COMPOSITIONS TO PROMOTE SWALLOWING SAFETY AND EFFICIENCY” (SOCIETE DES PRODUITS NESTLE S.A., priority 2020, published 2023).

Molecular target: TRPA1 (Homo sapiens, UniProt O75762)
Assay: Synergy of cinnamaldehyde and zinc on pharmacological activity of TRPA1, in vitro
Description: The trigeminal ingredient may comprise cinnamaldehyde and zinc. The combination provides a minimal flavor impact and is effective to promote a swallowing reflex. Cinnamaldehyde and zinc have a synergy on the pharmacological activity of TRPA1. Using this synergy, the effective amount of cinnamaldehyde can be decreased by supplementing the cinnamaldehyde with small amount of zinc. Consequently, the combination of cinnamaldehyde and zinc can promote a swallowing reflex at concentrations in food that are tolerable both in flavor/taste and in the gastrointestinal tract. Moreover, the synergy only requires a low concentration of zinc (in vitro<1 μM).

Chain of TRPA1 (O75762 whole entry, species assumed): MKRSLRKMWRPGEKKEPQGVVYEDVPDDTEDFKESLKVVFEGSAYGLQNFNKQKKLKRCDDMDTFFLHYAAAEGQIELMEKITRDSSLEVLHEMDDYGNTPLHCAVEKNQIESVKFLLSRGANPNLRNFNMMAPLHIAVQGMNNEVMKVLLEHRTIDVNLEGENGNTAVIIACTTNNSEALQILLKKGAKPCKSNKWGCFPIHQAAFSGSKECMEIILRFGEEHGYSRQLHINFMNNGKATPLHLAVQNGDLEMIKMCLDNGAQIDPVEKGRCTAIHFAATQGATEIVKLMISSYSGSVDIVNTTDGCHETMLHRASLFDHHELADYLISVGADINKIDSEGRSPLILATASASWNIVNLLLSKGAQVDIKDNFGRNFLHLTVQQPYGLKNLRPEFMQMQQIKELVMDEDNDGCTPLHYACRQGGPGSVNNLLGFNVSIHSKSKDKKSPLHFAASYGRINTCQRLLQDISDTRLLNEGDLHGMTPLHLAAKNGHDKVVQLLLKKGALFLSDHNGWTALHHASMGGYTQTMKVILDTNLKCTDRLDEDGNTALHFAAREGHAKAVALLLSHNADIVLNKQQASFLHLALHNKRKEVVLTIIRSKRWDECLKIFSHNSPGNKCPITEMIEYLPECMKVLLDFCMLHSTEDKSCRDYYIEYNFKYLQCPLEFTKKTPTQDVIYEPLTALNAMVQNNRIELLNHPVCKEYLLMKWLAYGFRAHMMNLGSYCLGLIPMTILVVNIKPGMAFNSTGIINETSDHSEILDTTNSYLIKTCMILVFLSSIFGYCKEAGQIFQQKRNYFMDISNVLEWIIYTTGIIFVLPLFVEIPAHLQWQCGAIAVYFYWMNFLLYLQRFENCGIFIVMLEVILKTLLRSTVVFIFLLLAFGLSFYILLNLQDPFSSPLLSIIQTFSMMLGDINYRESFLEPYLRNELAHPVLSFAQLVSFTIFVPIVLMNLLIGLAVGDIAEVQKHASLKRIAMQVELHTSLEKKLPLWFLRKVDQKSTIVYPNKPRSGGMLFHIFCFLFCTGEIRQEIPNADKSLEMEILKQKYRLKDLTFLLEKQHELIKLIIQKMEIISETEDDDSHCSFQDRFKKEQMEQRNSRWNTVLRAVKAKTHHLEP

[Zn] [zinc]
zinc concentration required for synergy with cinnamaldehyde: < 1 µM
